{
  "source": "paper PMC3032545",
  "about": "“A c-di-GMP Effector System Controls Cell Adhesion by Inside-Out Signaling and Surface Protein Cleavage” (PLoS Biology, 2011)",
  "biological_target": "T1, LapD (c-di-GMP receptor) with LapG (periplasmic protease, read-out) (Pseudomonas fluorescens, UniProt Q3KK31)",
  "T1 construct": "full-length native LapD and LapG in clarified Pf0-1 cell extracts; LapD mutants from plasmid pMQ72 in the lapD deletion strain; with Periplasmic cysteine protease LapG (transglutaminase-like cysteine peptidase, DUF920)",
  "T1 sequence (Q3KK31 1-648)": "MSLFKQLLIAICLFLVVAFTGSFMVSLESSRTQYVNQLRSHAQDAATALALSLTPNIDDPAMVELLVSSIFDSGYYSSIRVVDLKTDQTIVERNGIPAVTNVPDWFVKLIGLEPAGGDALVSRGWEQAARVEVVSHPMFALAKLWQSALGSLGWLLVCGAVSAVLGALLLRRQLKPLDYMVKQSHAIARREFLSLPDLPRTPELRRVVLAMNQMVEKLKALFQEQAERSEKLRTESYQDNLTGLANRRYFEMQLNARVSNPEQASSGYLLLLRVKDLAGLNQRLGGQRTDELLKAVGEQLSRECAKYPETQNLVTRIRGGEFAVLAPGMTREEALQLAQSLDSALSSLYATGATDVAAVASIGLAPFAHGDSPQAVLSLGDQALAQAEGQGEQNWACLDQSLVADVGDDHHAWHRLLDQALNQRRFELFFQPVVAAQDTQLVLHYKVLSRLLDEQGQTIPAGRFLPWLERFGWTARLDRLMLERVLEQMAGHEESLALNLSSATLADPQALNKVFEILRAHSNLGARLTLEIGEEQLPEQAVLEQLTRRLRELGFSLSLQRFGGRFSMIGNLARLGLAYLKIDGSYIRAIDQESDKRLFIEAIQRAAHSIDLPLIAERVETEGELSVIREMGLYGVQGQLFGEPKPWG",
  "T1 sequence (Q3KK32 50-251 partner)": "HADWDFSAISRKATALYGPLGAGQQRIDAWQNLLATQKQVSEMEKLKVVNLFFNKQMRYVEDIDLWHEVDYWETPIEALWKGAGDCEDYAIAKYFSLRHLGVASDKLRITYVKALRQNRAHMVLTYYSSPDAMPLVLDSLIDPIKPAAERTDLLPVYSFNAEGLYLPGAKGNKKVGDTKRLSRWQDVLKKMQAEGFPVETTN",
  "experiment": "inhibition of LapG cleavage of N-Term-LapA in cell extract, anti-His Western blot densitometry",
  "type": "biochemical",
  "settings": "LapD-dependent: c-di-GMP binds LapD EAL domain, not LapG; wild-type Pf0-1 extract; 30 pmol N-Term-LapA, 100 min, room temperature",
  "data": [
    {"smiles": "Nc1nc2c(ncn2[C@@H]2O[C@@H]3CO[P@](=O)(O)O[C@H]4[C@@H](O)[C@H](n5cnc6c(=O)[nH]c(N)nc65)O[C@@H]4CO[P@](=O)(O)O[C@H]3[C@H]2O)c(=O)[nH]1", "note": "[c-di-GMP]", "values": [
      {"measurement": "IC50", "value": "2.3 ± 1.1", "unit": "µM"}
    ]}
  ]
}
